For assay [1], the target named is T1, HDAC 6 (Homo sapiens, UniProt Q9UBN7).
T1 sequence (Q9UBN7 1-1215): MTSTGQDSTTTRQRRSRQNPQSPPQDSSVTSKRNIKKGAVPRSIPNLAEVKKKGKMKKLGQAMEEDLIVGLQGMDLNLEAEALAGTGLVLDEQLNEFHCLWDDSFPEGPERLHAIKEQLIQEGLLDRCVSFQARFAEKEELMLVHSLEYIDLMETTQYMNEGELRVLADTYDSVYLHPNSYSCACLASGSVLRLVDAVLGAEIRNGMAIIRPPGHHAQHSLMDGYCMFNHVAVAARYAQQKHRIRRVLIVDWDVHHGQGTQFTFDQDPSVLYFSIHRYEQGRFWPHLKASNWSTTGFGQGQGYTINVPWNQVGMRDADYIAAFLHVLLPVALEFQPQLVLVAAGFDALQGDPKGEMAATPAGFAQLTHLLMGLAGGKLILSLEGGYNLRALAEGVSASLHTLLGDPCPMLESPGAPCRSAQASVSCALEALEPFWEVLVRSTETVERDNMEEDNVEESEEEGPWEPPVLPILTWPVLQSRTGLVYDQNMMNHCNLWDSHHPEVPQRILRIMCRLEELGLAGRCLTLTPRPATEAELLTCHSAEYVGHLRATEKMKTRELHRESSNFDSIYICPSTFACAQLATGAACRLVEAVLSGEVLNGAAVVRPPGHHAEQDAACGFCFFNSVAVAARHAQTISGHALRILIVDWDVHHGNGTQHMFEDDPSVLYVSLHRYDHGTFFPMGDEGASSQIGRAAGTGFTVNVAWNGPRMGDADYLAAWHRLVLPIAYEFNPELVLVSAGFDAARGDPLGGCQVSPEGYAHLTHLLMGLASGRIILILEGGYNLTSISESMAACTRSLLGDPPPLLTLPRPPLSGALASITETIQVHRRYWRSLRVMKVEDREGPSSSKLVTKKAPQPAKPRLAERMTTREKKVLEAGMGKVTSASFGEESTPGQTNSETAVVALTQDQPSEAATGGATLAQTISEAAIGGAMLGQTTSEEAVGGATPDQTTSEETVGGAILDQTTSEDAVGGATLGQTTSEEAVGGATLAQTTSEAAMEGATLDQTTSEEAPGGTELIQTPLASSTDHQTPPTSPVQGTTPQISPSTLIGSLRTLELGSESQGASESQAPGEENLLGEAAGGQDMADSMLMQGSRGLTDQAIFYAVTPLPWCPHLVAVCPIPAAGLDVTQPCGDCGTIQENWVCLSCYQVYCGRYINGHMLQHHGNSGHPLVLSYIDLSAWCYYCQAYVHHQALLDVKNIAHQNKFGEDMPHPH
Description: Test of HDAC activities, HDAC6 (fluorimetric). In kind it is biochemical. Details: purchased Calbiochem 382180. To be noted: samples at 0.1, 1, 10, 100, 1000 nM; 37° C. 60 minutes; fluorescence Ex 390, Em 460; read-out: HDAC inhibitory activities, HDAC6. The gist of the method:
(§1)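 HDAC1 tested at 100, 1000 and 10000 nM; recombinant human HDAC6 at 0.1, 1, 10, 100 and 1000 nM. Reaction 60 min at 37° C, then developer for 30 min at 37° C; fluorescence read at Ex 390/Em 460.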

Assay [2] addresses HDAC1 (Homo sapiens, UniProt Q13547). Description: Test of HDAC activities, HDAC1 Fluorimetric Drug Discovery Assay Kit. Format: biochemical. To be noted: samples at 100, 1000, 10000 nM; 37° C. 60 minutes; fluorescence Ex 390, Em 460; read-out: HDAC inhibitory activities, HDAC1. Details: purchased Enzolifesciences BML-AK511. In a few lines:
as §1

For assay [3], the system named is colitis models. Description: Colitis models (dextran sulfate sodium). In kind it is in vivo, C57BL/6J mice. To be noted: intraperitoneally twice a day after 8 days from supply of DSS; disease-induced models lost to 17.5 to 18 g. How it is done:
3.0% dextran sulfate sodium (DSS: MP biomedicals) was dissolved in deionized water and supplied to 9-week-old C57BL/6J mice for 5 to 7 days and then water was normally supplied to the mice to induce colitis in animal models. The experimental animals were classified into a solvent control group and each group treated with Compound 254 and Compound 255 as test materials based on the body weight of the experimental animals. The test material was intraperitoneally injected twice a day after 8 days from the supply of DSS. The evaluation of the efficacy in colitis models was made by determining the degree to which the weight, lost due to the disease, was recovered to normal level, and the results are shown in FIG. 6.

Assay [4] relates to collagen-induced arthritis models. Description: Collagen-induced arthritis models. In kind it is in vivo, DBA/1J mice. To be noted: 30 mg/kg twice a day. How it is done:
An emulsion was prepared by mixing bovine collagen type II (Chondrex) and complete Freund's adjuvant (Chondrex) at a ratio of 1:1 until the […] using a 1 ml pipette. Each 100 μL of emulsion was intradermally injected into the tail of DBA/1J mice for the first immunization. After 21 days, an emulsion was prepared by mixing bovine collagen type II and incomplete Freund's adjuvant (Chondrex) at a ratio of 1:1 by the same method as above. Each of 100 μL of emulsion was intradermally injected into the upper part of the tail of DBA/1J mice for the second boosting immunization. After the second boosting immunization, the mice were grouped according to body weight, the test drug was administered to each group, and the effects of the test drugs were measured by measuring the clinical score and the body weight. The clinical scores were assigned from 0 to 4, and the total clinical score was determined by evaluating the feet of each mouse and summing up the scores (normal: 0, most severe edema: 16). That is, the efficacy in the arthritis models was evaluated with the severity of edema of the joint, and a higher score was assigned to more severe edema.

For assay [5], the system named is adjuvant-induced arthritis models. The assay is described as follows: Adjuvant-induced arthritis models. In kind it is in vivo, Lewis rat. The conditions noted are these: for clinical score: intraperitoneally, vehicle group 4.2. Here is the method: Complete Freund's Adjuvant (Chondrex) containing 10 mg/mL Heat killed mycobacteria toxin was sufficiently mixed, and then 100 μL was taken and intradermally injected into the upper part of the tail of Lewis rat to induce arthritis. After 10 days, the length of the ankle circumference of rats was measured, and then the rats were grouped and used in the experiment. Each compound was intraperitoneally injected twice a day. The clinical score, the length of the ankle circumference, and the weight were measured twice a week after the administration of the compounds. The clinical scores were assigned from 0 to 4 based on the thesis of Woods, etc. (J. Immunology, 1214-1222, 2001), and the total clinical score was determined by evaluating the feet of each rat and summing up the scores (normal: 0, most severe edema: 16). The length of the ankle circumference was calculated based on the formula of 2×3.14(√(a^2+b^2/2)) after measuring top-bottom sides (a) of the foot and lateral sides (b) of the foot. The final value was determined by averaging the calculated values of each foot.

Molecules are shown by their SMILES.

HDAC1, sequence (Q13547 whole entry): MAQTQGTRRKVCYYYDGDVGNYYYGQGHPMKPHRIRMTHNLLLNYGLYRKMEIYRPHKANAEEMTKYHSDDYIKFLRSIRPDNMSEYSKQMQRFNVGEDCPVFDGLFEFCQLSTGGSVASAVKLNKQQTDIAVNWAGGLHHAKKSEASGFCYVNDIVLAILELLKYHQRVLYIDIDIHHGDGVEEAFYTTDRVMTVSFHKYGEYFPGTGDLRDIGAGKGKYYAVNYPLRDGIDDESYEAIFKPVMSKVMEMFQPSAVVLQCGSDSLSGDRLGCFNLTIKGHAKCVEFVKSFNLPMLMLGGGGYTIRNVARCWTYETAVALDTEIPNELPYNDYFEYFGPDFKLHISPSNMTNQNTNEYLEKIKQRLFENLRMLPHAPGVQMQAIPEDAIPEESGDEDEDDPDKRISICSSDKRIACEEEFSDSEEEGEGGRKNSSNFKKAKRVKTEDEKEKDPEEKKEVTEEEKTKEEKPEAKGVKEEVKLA

In the case of `Cn1ncc2ccc(-c3cccc(N(Cc4ccc(C(=O)NO)cc4)C(=O)N4CCOCC4)c3)cc21` [Compound 254, N-(4-(hydroxycarbamoyl)benzyl)-N-(3-(1-methyl-1H-indazol-6-yl)phenyl)morpholine-4-carboxamide], the IC50 turned out to be 0.002 µM in assay [1] and 0.173 µM in assay [2]. For the same compound, in assay [3], the “weight recovered to” value is on record as 18.5 to 19.0 g. Moreover, in assay [4] (versus vehicle group), the “arthritis symptoms improved by” value is “more than 40%”. The same compound had a clinical score in assay [4] (score 0 to 16, vehicle group 11.6) of 6.4.

As to `CCN1CCN(C(=O)N(Cc2ccc(C(=O)NO)cc2)c2cccc(C(F)(F)F)c2)CC1` [Compound 461, 4-ethyl-N-(4-(hydroxycarbamoyl)benzyl)-N-(3-(trifluoromethyl)phenyl)piperazine-1-carboxamide], the IC50 was 0.001 µM in assay [1] and 2.72 µM in assay [2]. Further, the results for the clinical score in assay [5] (25 mg/kg twice a day) and in assay [5] (50 mg/kg twice a day) were 1.9 and 1.3, respectively. Moreover, the “improvement compared with MTX used as the control group” value in assay [5] (25 and 50 mg/kg twice a day) was “higher than that of MTX”. Further, in assay [5] (25 and 50 mg/kg twice a day, versus vehicle group), the “arthritis symptoms improved by” value fell in the range of 50 to 70%.

Take `C[C@@H]1CN(C(=O)N(Cc2ccc(C(=O)NO)cc2)c2cccc(C(F)(F)F)c2)C[C@H](C)N1CC(F)(F)C(F)(F)F` [Compound 803, (3S,5R)—N-(4-(hydroxycarbamoyl)benzyl)-3,5-dimethyl-4-(2,2,3,3,3-pentafluoropropyl)-N-(3-(trifluoromethyl)phenyl)piperazine-1-carboxamide]: the IC50 in assay [1] stood at 0.213 µM; in assay [2], 5.32 µM.

On to `CCN1CCN(C(=O)N(Cc2ccc(C(=O)NO)cc2)c2cccc(C(F)(F)F)n2)CC1` [Compound 826, 4-ethyl-N-(4-(hydroxycarbamoyl)benzyl)-N-(6-(trifluoromethyl)pyridin-2-yl)piperazine-1-carboxamide], for which the IC50 in assay [1] is 0.0118 µM; in assay [2] it was 1.85 µM.

For `CC1CN(C(=O)N(Cc2ccc(C(=O)NO)cc2)c2cccc(C(F)(F)F)n2)CC(C)O1` (stereo not drawn) [Compound 827, N-(4-(hydroxycarbamoyl)benzyl)-2,6-dimethyl-N-(6-(trifluoromethyl)pyridin-2-yl)morpholine-4-carboxamide], the IC50 in assay [1] worked out at 0.0247 µM; in assay [2], 1.74 µM.

Take `O=C(NO)c1ccc(CN(C(=O)N2CCCCC2)c2cccc(C(F)(F)F)n2)cc1` [Compound 828, N-(4-(hydroxycarbamoyl)benzyl)-N-(6-(trifluoromethyl)pyridin-2-yl)piperidine-1-carboxamide]: the figures for the IC50 in assay [1] and in assay [2] were 0.0367 µM and 4.14 µM, respectively.

In the case of `O=C(NO)c1ccc(CN(C(=O)N2CC[C@H](F)C2)c2cccc(C(F)(F)F)n2)cc1` [Compound 829, (S)-3-fluoro-N-(4-(hydroxycarbamoyl)benzyl)-N-(6-(trifluoromethyl)pyridin-2-yl)pyrrolidine-1-carboxamide], the results for the IC50 in assay [1] and in assay [2] were 0.0082 µM and 1.6 µM, respectively.

Source of the values: US9878986B2, “Compounds for selective histone deacetylase inhibitors, and pharmaceutical composition comprising the same” (CHONG KUN DANG PHARMACEUTICAL CORP., priority 2013, dated 2018).
